The text below walks through data of patent publication US20040010021A1, “Pharmaceutical compositions for the treatment of depression or symptoms suggesting depression” (priority 2000, published 2004).

“Also recorded” adds a separate entry of the source.

Data set [1] relates to patients. To be noted: cited from earlier work; for depression as adverse effect (literature): literature and Physicians' Desk Reference.
The test system of data set [2] is patients. The data set can be described thus: Hamilton 24 (HAMD) depression scale, multicenter randomized controlled clinical study. The format is in vivo, human. Particulars: conclusion from the 4-week clinical study, vs ranitidine-group and baseline.
Excerpt: The number of cases investigated was 119, which assured that the obtained data reach the level of statistical significance. […] During the statistical evaluation a probability level of p≦0.05 was regarded as significant.
Multicenter, randomized, controlled study; the study can be regarded blind with respect to the psychiatrist's assessment of the results.
4-week treatment period with the administration of the test—or reference medication.
On the occasion of the 1st visit (week-1-0) the recording of the medical history, physical examination, endoscopy (optional), the signing of the consent form, then the assessment of the extent of anxiety during the psychiatric examination, by using the Hamilton 24 (HAMD) and the MADRS (Montgomery Asberg) depression scales as well as the Hamilton Anxiety Rating Scale (HAMA). […]
(§1) The describing statistics (median, quartiles, average, dispersion, case-number, minimum and maximum values) were given for all numerical data variables (age, body weight, height, overall scores for HAMD and MADRS, as well as HAMA). […] The global parameters (the patient's opinion of the changes in the mood and the general condition, the physician's opinion of the general condition of the patient, and the psychiatrist's opinion of the changes in depression and anxiety) were assessed by applying the median-test (SAS NPAR1 WAY method).
Data set [3] concerns patients. To be noted: 4-week clinical study.
Excerpt: This is followed by a four-week (week 0-4) H2-blocker therapy performed on the basis of the former randomization applying either Quamatel®- or Zantac®—therapy. During randomization they have also taken the female-male ratio into consideration.
as §1

In the case of `CNC(=C[N+](=O)[O-])NCCSCc1ccc(CN(C)C)o1` [ranitidine], the “depression as adverse effect (literature)” value (shortened to “depression as adverse effect”) in data set [1] was “development of depression could be unquestionably associated with ranitidine-therapy”.

Turning to `CN/C(=N/CCSCc1nc[nH]c1C)NC#N` [cimetidine], the “depression as adverse effect” value in data set [1] is recorded as “marked depressant effect”.

With `NC(N)=Nc1nc(CSCCC(N)=NS(N)(=O)=O)cs1` [famotidine], the “antidepressant / depression-reducing effect, conclusion of the study” value in data set [2] is listed as “specific depression-reducing effect; also recorded: significantly detectable antidepressant effect”. Further, in data set [3], the “gastrointestinal efficacy compared with ranitidine” value is given as “practically displaying the same gastrointestinal efficacy”. Further, the “efficacy in schizophrenia (literature case studies)” value in data set [1] (case studies) is recorded as “effective in the management of schizophrenia”. Besides, the “depression as adverse effect” value in data set [1] is listed as “depression as one of the adverse reactions”.
